# From ChEMBL document CHEMBL5465560, “Selectivity Literature for EUbOPEN Chemogenomic Library” (2024)
# Legend:
# [1] = target: T1, Alpha-1A adrenergic receptor (Homo sapiens) (UniProt P35348); assay: Selectivity interaction (Panel of non-epigenetic targets (kinases, GPCRs, ion channels, and transporters, Eurofins) ) EUB0000271b ADRA1A; settings: at 1 µM
# T1 sequence (whole entry): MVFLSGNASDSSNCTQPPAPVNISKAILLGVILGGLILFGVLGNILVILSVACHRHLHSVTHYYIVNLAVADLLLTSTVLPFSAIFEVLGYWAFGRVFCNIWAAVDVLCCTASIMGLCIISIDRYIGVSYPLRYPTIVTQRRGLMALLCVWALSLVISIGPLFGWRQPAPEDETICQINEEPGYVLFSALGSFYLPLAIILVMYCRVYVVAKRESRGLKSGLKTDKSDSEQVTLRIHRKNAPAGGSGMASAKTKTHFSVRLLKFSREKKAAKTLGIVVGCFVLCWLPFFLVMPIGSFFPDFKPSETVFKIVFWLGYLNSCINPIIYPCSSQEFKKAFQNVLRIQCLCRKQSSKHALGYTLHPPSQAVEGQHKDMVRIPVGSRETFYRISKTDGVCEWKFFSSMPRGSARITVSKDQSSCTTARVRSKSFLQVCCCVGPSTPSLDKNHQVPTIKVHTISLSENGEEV
# [2] = target: T2, Tyrosine-protein kinase TXK (Homo sapiens) (UniProt P42681); assay: Selectivity interaction (KinomeScan (DiscoverX)) EUB0001619a TXK; settings: at 1 µM
# T2 sequence (whole entry): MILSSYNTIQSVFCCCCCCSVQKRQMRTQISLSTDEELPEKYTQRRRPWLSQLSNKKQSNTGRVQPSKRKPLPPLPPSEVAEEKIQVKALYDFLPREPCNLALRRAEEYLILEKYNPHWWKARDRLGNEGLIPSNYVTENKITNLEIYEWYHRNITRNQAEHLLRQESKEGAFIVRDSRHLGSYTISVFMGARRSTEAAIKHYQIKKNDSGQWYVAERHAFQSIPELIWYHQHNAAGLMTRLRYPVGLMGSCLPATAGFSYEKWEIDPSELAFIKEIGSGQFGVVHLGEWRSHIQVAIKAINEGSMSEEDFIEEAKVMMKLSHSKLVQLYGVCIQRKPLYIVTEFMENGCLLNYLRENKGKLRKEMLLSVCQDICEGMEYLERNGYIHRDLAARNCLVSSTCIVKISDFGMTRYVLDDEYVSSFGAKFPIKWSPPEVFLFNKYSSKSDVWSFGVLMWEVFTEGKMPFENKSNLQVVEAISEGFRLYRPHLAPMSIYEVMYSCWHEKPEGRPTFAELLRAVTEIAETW
# [3] = target: Tyrosine-protein kinase JAK2 (Homo sapiens, UniProt O60674); assay: Selectivity interaction (Enyzmatic assay) EUB0000601a JAK2
# [4] = target: T3, Serine/threonine-protein kinase Nek9 (Homo sapiens) (UniProt Q8TD19); assay: Selectivity interaction (KinomeScan (DiscoverX)) EUB0000618a NEK9; settings: at 10 µM
# T3 sequence (whole entry): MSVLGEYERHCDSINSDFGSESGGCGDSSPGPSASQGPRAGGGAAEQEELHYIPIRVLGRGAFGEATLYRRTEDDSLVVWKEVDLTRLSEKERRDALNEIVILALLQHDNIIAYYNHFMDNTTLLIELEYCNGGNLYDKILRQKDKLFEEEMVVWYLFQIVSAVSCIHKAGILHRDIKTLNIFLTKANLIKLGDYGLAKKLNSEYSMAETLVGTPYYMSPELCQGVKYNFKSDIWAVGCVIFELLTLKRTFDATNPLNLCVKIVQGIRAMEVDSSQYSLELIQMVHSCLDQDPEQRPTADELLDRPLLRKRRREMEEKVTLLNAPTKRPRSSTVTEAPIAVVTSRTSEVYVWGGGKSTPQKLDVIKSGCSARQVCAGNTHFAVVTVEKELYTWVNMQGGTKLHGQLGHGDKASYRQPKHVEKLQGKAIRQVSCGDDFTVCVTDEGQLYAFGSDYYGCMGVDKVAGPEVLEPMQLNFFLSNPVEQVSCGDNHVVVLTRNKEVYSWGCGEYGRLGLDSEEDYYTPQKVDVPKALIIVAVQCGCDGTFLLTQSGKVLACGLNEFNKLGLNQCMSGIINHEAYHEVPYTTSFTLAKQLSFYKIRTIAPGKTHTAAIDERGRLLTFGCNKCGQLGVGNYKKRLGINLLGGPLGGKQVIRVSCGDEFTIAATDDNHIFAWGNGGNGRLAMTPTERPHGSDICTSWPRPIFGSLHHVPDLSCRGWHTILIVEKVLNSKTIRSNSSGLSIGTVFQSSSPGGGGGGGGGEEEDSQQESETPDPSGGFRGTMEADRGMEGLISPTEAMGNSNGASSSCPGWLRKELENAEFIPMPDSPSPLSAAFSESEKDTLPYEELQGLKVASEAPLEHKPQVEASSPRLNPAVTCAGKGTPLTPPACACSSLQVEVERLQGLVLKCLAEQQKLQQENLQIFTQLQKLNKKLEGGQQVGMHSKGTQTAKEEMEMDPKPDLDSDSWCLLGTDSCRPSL
# [5] = target: Mitogen-activated protein kinase 1 (Homo sapiens, UniProt P28482); assay: Selectivity interaction (ActivX KiNativ screen (kinase selectivity in THP-1 cell lysates)) EUB0000639a MAPK1; type: subcellular; settings: lysate
# Sequence of Mitogen-activated protein kinase 1 (P28482 whole entry): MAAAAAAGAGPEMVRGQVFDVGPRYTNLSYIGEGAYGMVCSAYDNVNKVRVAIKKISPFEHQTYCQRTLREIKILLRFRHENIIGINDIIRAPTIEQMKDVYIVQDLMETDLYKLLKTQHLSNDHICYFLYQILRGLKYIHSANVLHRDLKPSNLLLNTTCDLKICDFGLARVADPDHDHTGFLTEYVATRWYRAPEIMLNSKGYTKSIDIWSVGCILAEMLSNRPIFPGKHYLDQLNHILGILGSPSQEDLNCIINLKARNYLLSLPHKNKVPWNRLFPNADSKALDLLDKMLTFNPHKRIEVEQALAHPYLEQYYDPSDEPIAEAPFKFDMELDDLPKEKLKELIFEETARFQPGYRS
# Sequence of Tyrosine-protein kinase JAK2 (O60674 whole entry): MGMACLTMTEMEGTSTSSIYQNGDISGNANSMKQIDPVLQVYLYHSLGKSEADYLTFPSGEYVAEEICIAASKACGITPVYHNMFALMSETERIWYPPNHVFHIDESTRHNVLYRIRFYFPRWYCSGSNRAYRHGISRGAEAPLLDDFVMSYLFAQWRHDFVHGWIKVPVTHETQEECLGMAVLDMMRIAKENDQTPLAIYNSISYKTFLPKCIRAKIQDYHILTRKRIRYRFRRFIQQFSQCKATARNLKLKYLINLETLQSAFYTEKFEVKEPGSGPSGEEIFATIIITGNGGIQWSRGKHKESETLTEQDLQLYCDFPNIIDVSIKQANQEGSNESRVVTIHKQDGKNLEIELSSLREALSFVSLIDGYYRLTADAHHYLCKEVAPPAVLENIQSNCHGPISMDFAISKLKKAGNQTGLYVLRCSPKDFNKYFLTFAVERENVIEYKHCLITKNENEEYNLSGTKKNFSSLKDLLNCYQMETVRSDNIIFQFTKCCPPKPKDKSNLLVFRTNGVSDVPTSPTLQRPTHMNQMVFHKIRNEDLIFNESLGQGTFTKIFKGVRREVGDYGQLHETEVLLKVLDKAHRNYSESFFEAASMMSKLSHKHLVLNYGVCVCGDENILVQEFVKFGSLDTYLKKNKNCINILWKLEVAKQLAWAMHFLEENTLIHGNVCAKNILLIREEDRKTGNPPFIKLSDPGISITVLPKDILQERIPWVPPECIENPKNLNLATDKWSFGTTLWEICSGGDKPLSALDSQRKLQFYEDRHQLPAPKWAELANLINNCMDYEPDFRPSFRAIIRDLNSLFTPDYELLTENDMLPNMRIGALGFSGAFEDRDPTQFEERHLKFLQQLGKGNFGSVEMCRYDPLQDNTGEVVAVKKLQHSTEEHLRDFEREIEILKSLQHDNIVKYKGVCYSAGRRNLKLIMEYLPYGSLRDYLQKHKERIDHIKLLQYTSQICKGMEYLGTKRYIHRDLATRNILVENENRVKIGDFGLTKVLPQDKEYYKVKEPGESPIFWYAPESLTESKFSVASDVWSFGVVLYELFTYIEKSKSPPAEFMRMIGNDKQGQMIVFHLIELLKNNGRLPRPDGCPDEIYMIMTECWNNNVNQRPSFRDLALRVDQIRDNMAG
structure (smiles),measurement,setting,value
Cc1cc(C)cc([C@@H]2c3cc(C)ccc3NC(=O)CN2C(=O)c2ccc(Br)s2)c1,% of inhibition,[1],4%
N#Cc1cccc(-c2c[nH]c3ncnc(N4CCOCC4)c23)c1,% of control,[2],100%
CCc1cc(Nc2nccc(-c3c(-c4ccc(OC)c(C(=O)Nc5c(F)cccc5F)c4)nc4ccccn34)n2)c(OC)cc1N1CCC(N2CCN(S(C)(=O)=O)CC2)CC1,IC50,[3],> 16 µM
O[C@H]1CC[C@H](Nc2ncc3nc(Nc4c(F)cc(F)cc4F)n([C@H]4CCOC4)c3n2)CC1,% of control,[4],100%
CC[C@@H]1[C@H](F)C(=O)N[C@@H]1COc1nccc2cc(C(N)=O)c(OC)cc12 [ZIMLOVISERTIB],% of inhibition,[5]; at 0.01 µM,-8.4%
same,% of inhibition,[5]; at 0.04 µM,-6%
same,% of inhibition,[5]; at 0.2 µM,0.3%
same,% of inhibition,[5]; at 1 µM,-16.3%
same,% of inhibition,[5]; at 5 µM,-11.6%
